Series [1] concerns progesterone receptor. Kind of series: Relative binding affinity, progesterone receptor, human uterus cytosol, 3H-R5020 displacement. The settings on record: 3H-R5020 8 nmol/l, R5020 = 100% RBA. As for the experimental part: (§1) The relative binding affinities (RBA values) of aldosterone, prorenone as well as the compounds of this invention were determined, for the progesterone receptor, in human uterus cytosol, for the glucocorticoid receptor, in liver cytosol, and for the mineralocorticoid receptor, in the kidney cytosol of adrenalectomized rats. The relative binding affinity with respect to CBG was measured in the serum of pregnant women, diluted 1:30.
(§2) Cytosol from human uterus, rat kidneys and rat livers was prepared by homogenizing the tissues under cooling with the addition of receptor-stabilizing buffer (10 mmol/1 of KH2 PO4, 10 mmol/1 of K2 HPO4, 1.5 mmol/1 of EDTA, 3 mmol/1 of NaN3, 5 mmol/1 of monothioglycerol, 10% glycerol, pH 7.5). The homogenate was then centrifuged for 30 minutes at 105,000×g. The thus-formed supernatant centrifugation liquor corresponds to the tissue cytosol utilized for receptor testing. Then, in each case, 50 μl of a ^3 H-steroid (^3 H-R5020) for progesterone receptor testing, ^3 H-dexamethasonefor glucocorticoid receptor testing, ^3 H-aldosterone for mineralocorticoid receptor testing), dissolved in a buffer, was pipetted into test tubes (final concentration 8 nmol/1). Thereafter, the various steroids to be tested (in respectively six different concentrations: 10^-10 to 10^-5 mol/1) in 50 μl of buffer were added to the incubating tubes. Finally, 100 μl of cytosol was introduced into each tube by pipetting, and the incubation batch was thoroughly mixed and incubated overnight at 0°-4° C. Incubation was terminated by adding 0.5 ml of dextran-layered activated carbon (DCC) in a buffer. After 10 minutes of incubation under cooling, DCC was removed by centrifuging and thus the free, not receptor-bound steroid was separated from the receptor-bound steroid. The radioactivity was measured in the supernatant centrifugation liquors by means of a scintillation counter. All thus-determined values result from triple measurements. The measured dpm values were expressed in % of relative binding affinity, the RBA value referring to 50% displacement of the ^3 H-labeled ligand by its unlabeled authentic steroid (=100% RBA).

Series [2] deals with T1, mineralocorticoid receptor (Rattus norvegicus, UniProt P22199).
T1 construct: Cytosol from human uterus, rat kidneys and rat livers was prepared by homogenizing the tissues; from tissue; host or cells: kidney cytosol of adrenalectomized rats
T1 sequence (P22199 1-981): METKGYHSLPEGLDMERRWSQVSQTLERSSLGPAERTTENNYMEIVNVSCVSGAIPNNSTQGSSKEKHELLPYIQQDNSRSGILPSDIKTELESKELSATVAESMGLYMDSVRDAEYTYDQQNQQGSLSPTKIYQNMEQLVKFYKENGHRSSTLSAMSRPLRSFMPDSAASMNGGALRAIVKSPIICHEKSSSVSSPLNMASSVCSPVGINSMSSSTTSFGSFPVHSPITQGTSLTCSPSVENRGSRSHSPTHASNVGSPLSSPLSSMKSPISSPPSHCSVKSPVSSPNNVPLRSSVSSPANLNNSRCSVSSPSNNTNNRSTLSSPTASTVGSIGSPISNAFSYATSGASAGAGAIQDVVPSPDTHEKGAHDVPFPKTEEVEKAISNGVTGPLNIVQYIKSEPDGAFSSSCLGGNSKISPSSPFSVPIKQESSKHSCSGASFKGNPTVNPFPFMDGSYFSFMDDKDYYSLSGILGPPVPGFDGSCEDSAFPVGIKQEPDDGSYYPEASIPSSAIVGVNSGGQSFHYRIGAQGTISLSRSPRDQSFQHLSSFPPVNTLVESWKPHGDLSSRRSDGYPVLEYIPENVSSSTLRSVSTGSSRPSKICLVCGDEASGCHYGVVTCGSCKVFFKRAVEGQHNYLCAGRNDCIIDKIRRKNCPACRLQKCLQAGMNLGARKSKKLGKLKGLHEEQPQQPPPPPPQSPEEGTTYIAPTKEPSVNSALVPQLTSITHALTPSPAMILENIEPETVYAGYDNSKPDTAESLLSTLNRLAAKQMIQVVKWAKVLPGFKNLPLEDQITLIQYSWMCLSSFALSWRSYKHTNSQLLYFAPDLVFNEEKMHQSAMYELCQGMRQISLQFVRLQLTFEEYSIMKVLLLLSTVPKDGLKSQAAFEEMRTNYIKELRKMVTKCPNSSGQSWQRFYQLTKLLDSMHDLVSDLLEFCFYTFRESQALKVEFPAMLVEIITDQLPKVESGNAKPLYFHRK
Kind of series: Relative binding affinity, mineralocorticoid receptor, kidney cytosol, 3H-aldosterone displacement. The settings on record: kidney cytosol of adrenalectomized rats; 3H-aldosterone 8 nmol/l; aldosterone = 100% RBA. As for the experimental part: as §1, §2

The target of series [3] is T2, glucocorticoid receptor (Rattus norvegicus, UniProt P06536).
T2 construct: Cytosol from human uterus, rat kidneys and rat livers was prepared by homogenizing the tissues; from tissue; host or cells: rat liver cytosol
T2 sequence (P06536 1-795): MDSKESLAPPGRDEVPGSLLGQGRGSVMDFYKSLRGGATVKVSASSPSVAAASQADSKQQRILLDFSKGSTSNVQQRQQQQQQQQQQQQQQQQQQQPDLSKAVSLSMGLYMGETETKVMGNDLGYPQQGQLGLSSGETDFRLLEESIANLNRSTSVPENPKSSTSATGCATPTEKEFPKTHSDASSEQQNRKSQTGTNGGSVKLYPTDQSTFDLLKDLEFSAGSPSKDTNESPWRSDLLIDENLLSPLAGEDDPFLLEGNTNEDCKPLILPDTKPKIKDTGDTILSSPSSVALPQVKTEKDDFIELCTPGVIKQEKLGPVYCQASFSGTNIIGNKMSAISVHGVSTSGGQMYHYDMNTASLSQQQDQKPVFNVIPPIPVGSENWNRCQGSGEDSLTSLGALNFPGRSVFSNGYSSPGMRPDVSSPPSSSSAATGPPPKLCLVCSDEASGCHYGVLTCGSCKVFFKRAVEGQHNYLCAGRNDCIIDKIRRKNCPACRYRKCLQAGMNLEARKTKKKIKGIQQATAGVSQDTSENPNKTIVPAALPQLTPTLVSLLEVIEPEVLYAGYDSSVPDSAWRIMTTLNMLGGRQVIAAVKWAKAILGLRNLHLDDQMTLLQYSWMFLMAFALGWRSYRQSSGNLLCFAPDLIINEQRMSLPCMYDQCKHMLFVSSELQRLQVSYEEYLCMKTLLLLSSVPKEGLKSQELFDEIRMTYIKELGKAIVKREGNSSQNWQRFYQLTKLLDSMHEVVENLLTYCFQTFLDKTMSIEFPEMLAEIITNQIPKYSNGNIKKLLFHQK
Kind of series: Relative binding affinity, glucocorticoid receptor, liver cytosol, 3H-dexamethasone displacement. The settings on record: for Relative binding affinity (RBA), Glucocorticoid Receptor: rat liver cytosol, 3H-dexamethasone 8 nmol/l, dexamethasone = 100% RBA. The procedure:
as §1, §2

Series [4] has as its target T3, CBG (Homo sapiens, UniProt P08185).
T3 construct: a 1:30 dilution of the serum of pregnant women as the source of CBG; from tissue; host or cells: serum of pregnant women, diluted 1:30
T3 sequence (P08185 23-405): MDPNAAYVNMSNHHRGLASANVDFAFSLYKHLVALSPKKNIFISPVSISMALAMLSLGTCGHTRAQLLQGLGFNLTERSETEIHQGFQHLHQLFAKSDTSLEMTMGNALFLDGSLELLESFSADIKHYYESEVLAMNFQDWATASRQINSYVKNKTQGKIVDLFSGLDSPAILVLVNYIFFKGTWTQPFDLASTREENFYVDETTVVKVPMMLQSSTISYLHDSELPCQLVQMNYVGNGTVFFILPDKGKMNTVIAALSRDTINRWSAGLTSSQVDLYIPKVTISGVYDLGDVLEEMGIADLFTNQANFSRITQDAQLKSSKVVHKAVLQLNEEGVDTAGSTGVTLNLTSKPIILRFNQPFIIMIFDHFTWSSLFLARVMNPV
Description: Relative binding affinity to CBG, serum of pregnant women, 3H-cortisol displacement. To be noted: for Relative binding affinity (RBA), CBG: serum of pregnant women diluted 1:30, 3H-cortisol, cortisol = 100% RBA. As for the experimental part: as §1
As for the RBA values, for CBG an analogous procedure was followed, using ^3 H-cortisol and a 1:30 dilution of the serum of pregnant women as the source of CBG.

Series [5] in a line: Metabolic stability under the conditions of the receptor test. The settings on record: in vitro receptor test conditions. The format is in vitro ADME.

As to “7α-(^3 H3)methoxycarbonyl-15β,16β-methylene-3-oxo-17α-[18,19-^3 H4 ]pregn-4-ene-21,17-carbolactone [Example 4]”, in series [1], the “Relative binding affinity (RBA), Progesterone Receptor” value is given as 0.5%. In series [2], the “Relative binding affinity (RBA), Mineralocorticoid Receptor” value is 400%. In addition, the “Relative binding affinity (RBA), Glucocorticoid Receptor” value in series [3] was determined as 0.8%. For the same molecule, the “Relative binding affinity (RBA), CBG” value in series [4] is given as below 0.1%.
For `C[C@]12CCC(=O)C=C1CC[C@@H]1[C@@H]2[C@@H](O)C[C@]2(C=O)[C@@H](C(=O)CO)CC[C@@H]12` [Aldosterone, reference compound], the “Relative binding affinity (RBA), Progesterone Receptor” value in series [1] came to 0.2%. Further, in series [5], the “metabolic stability under the conditions of the receptor test” value is given as “is metabolized under in vitro conditions of receptor testing”. Besides, in series [3], the “Relative binding affinity (RBA), Glucocorticoid Receptor” value worked out at 30%. Further, the “relative binding affinity in rat liver cytosol” value in series [3] (with respect to dexamethasone) was found to be 30%. In series [4], the “Relative binding affinity (RBA), CBG” value worked out at 6%. In addition, the “relative binding affinity (RBA value) to the human serum protein CBG” value in series [4] (with respect to cortisol) was 6%.
“6μ,7β;15β,16β-dimethylene-3-oxo-17α-[18,19-^3 H4 ]pregna-1,4-diene-21,17-carbolactone [Example 3]”: the “Relative binding affinity (RBA), Progesterone Receptor” value in series [1] is 50%. Also, the “Relative binding affinity (RBA), Mineralocorticoid Receptor” value in series [2] was found to be 90%. The “Relative binding affinity (RBA), Glucocorticoid Receptor” value in series [3] worked out at 0.9%. Further, the “Relative binding affinity (RBA), CBG” value in series [4] is below 0.1%.
For `C[C@]12CCC(=O)C=C1[C@@H]1C[C@@H]1[C@H]1[C@@H]3[C@@H]4C[C@@H]4[C@@]4(CCC(=O)O4)[C@@]3(C)CC[C@@H]12` [Prorenone, reference compound] the same measures were 32%, 200%, 3% and below 0.01%.
The matching figures for “7α-[1'-(^3 H3)-ethoxy]carbonyl-15β,16β-methylene-3-oxo-17α-pregn-4-ene-21,17-carbolactone [Example 8]”: 0.95%, 800%, 0.8% and below 0.1%.
For “7α-[1'-(^3 H3)ethoxy]carbonyl-15β,16β-methylene-3-oxo-17α-pregna-1,4-diene-21,17-carbolactone [Example 6]” the same measures were 0.2%, 600%, 0.4% and below 0.1%.
For the molecule “1α,2α;15β,16β-dimethylene-7α-methoxycarbonyl-3-oxo-17α-[18,19-^3 H4 ]pregn-4-ene-21,17-carbolactone [Example 7]”, in series [1], the “Relative binding affinity (RBA), Progesterone Receptor” value was determined as 0.2%. The “Relative binding affinity (RBA), Mineralocorticoid Receptor” value in series [2] came to 600%. For the same molecule, in series [3], the “Relative binding affinity (RBA), Glucocorticoid Receptor” value came out at 0.2%. Further, the “Relative binding affinity (RBA), CBG” value in series [4] is on record as below 0.1%.

These data come from patent US4904462A, “Multiply-tritiated steroidal-20,17-spirolactones and their use as tracer compounds” (Schering Aktiengesellschaft, priority 1984, dated 1990).
